Results as given in ChEMBL document CHEMBL3632597, “Synthesis and biological evaluation of 5-(fluoro-substituted-6-methylpyridin-2-yl)-4-([1,2,4]triazolo[1,5-a]pyridin-6-yl)imidazoles as inhibitors of transforming growth factor-β type I receptor kinase” (Bioorg Med Chem Lett, 2015).

Tests used:
[1] = target: Mitogen-activated protein kinase 14 (Homo sapiens, UniProt Q16539); test: Inhibition of human recombinant p38alpha expressed in Escherichia coli using ATF2 as substrate by proprietary radioisotopic protein kinase assay
TGF-beta receptor type-1 = target: T1, TGF-beta receptor type-1 (Homo sapiens, UniProt P36897); test: Inhibition of human recombinant GST-fused ALK5 expressed in Sf9 insect cells using casein as substrate by proprietary radioisotopic protein kinase assay
T1 sequence (P36897 whole entry): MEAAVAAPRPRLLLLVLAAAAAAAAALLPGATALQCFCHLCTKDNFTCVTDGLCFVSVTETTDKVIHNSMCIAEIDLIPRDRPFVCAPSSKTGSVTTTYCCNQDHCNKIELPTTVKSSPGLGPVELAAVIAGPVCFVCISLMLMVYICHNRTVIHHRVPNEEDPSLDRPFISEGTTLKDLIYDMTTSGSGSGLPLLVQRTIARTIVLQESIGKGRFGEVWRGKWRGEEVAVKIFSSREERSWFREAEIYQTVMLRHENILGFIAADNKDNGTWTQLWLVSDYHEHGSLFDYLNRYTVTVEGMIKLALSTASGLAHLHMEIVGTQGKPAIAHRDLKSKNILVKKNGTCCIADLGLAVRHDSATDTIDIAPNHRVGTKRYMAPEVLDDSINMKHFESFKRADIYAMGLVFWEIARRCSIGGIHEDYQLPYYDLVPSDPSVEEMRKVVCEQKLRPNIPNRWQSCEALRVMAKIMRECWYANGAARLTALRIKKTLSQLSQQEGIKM

Mitogen-activated protein kinase 14, sequence (Q16539 whole entry, the tested form may be a part): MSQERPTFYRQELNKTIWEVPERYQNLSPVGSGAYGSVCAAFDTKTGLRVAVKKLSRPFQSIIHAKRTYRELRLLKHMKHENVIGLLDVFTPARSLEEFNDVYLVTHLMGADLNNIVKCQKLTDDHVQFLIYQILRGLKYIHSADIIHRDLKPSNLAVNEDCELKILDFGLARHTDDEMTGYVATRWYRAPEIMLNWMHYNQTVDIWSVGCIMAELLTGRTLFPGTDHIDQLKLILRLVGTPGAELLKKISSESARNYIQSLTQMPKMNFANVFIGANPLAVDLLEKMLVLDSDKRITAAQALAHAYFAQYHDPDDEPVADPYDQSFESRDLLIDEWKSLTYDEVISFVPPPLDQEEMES

IC50 [1] [nM]	IC50 (TGF-beta receptor type-1) [nM]	SMILES
766	12.1	Cc1ccc(F)c(-c2[nH]c(CNc3ccccc3F)nc2-c2ccc3ncnn3c2)n1
> 10000	72.5	Cc1cc(F)cc(-c2[nH]c(CNc3ccccc3)nc2-c2ccc3ncnn3c2)n1
3370	12.5	Cc1nc(-c2[nH]c(CNc3ccccc3F)nc2-c2ccc3ncnn3c2)ccc1F
> 10000	41.9	Cc1cc(F)cc(-c2[nH]c(CNc3ccccc3F)nc2-c2ccc3ncnn3c2)n1

Second part, the compound before the results:

SMILES	IC50 [1] [nM]	IC50 (TGF-beta receptor type-1) [nM]
Cc1ccc(F)c(-c2[nH]c(CNc3cccc(C(N)=O)c3)nc2-c2ccc3ncnn3c2)n1	251	11
Cc1nc(-c2[nH]c(CNc3ccccc3)nc2-c2ccc3ncnn3c2)ccc1F	2040	9.23
Cc1nc(-c2[nH]c(CNc3cccc(C#N)c3)nc2-c2ccc3ncnn3c2)ccc1F	1240	7.68
Cc1ccc(F)c(-c2[nH]c(CNc3cccc(C#N)c3)nc2-c2ccc3ncnn3c2)n1	209	9.23
C=Cc1cccc(NCc2nc(-c3ccc4ncnn4c3)c(-c3ccc(F)c(C)n3)[nH]2)c1	1810	13.7
Cc1nc(-c2[nH]c(CNc3cccc(C(N)=O)c3)nc2-c2ccc3ncnn3c2)ccc1F	1480	10.8
Cc1cccc(-c2nn3c(c2-c2ccnc4ccc(C(N)=O)cc24)CCC3)n1 [GALUNISERTIB]	405	
C=Cc1cccc(NCc2nc(-c3ccc4ncnn4c3)c(-c3nc(C)ccc3F)[nH]2)c1	171	9.81
Cc1ccc(F)c(-c2[nH]c(CNc3ccccc3)nc2-c2ccc3ncnn3c2)n1	399	9.76
